According to patent US20210317102A1, “INHIBITORS OF INTEGRATED STRESS RESPONSE PATHWAY” (Praxis Biotech LLC, priority 2019, published 2021):

How the values were obtained:
ARH cells = assay: Secretion of Ig-kappa by ARH cells; type: cell-based; details: 1 µM of compound 10 for 24 hours, vs vehicle (0.1% DMSO)
Experimental: ARH cells were maintained at 37° C. and 5% CO2 and seeded at a density of 500,000 cell/well in RPMI supplemented with, 100 U/ml penicillin, and 100 μg/ml streptomycin in a 12-well culture plate. Cells were treated either with vehicle (0.1% DMSO) or […] of compound 10 for 24 hours. Then, culture media with cells were recovered in microtubes and centrifuged at 500 g for 5 minutes. Supernatants (SN) which contain secreted proteins were extracted and protease and phosphatase inhibitors (Roche) were added to each sample. SN were centrifuged at 2,000 g for 10 min to discard any cellular debris and 900 μL SN were transferred to empty microtubes with 400 μL methanol by mixing well. 200 μL of chloroform was added to the mix and then samples were centrifuged at 14,000 g for 2 minutes. Top aqueous layer was discarded by pipetting off and 400 μL methanol was added to each sample by mixing well. Samples were then centrifuged at 17,000 g for 8 minutes and methanol was discarded by pipetting off without disturbing the protein pellet. […] Quantification of protein bands was done by densitometry using ImageJ software.
Percent of secreted Ig kappa light chain by ARH cells treated with vehicle or compound 10 from three independent experiments is shown in FIG. 4. Percentage was calculated as the percent relative to Ig kappa secretion levels from ARH cells treated with vehicle which correspond to 100%.

CHO cells = assay: Protein secretion in a CHO cell-based assay; details: 1 μM compound 10, media without FBS, 24 h, vs vehicle
Experimental: CHO cells were maintained at 37° C. and 5% CO2 in DMEM supplemented with 10% fetal bovine serum (FBS), 2 mM L-glutamine, 100 U/ml penicillin, and 100 μg/ml streptomycin. After reaching 80% of confluence, cells were detached and seeded on 6-well plates in complete media, allowed to recover for 48 h. Cells were then washed three times with PBS and treated with compound 10 at […] in 1 mL of media without FBS for 24 h. Treatment with 0.1% DMSO was used as control (vehicle). After 24 h treatment, supernatant (SN) which contains secreted proteins was extracted and protease and phosphatase inhibitors (Roche) were added to each sample. SN were centrifuged at 2,000 g for 10 min to discard any cellular debris and 900 μL SN were transferred to empty microtubes with 400 μL methanol by mixing well. 200 μL of chloroform was added to the mix and then samples were centrifuged at 14,000 g for 2 minutes. Top aqueous layer was discarded by pipetting off and 400 μL methanol is added to each sample by mixing well. Samples were then centrifuged at 17,000 g for 8 minutes and methanol was discarded by pipetting off without disturbing the protein pellet. […] Secreted proteins were analyzed by SDS-PAGE and Coomassie staining. […] Percentage was calculated as the percent relative to protein secretion levels from CHO cells treated with vehicle which correspond to 100%.

L-Wnt-3A cells = assay: Secretion of Wnt-3A by L-Wnt-3A cells; type: cell-based; details: 1 µM compound 10, DMEM with reduced FBS (1%), 24 hours, vs vehicle
Experimental: L-Wnt-3A cells (ATCC® CRL-2647™) were maintained at 37° C. and 5% CO2 in DMEM supplemented with 10% fetal bovine serum (FBS), 2 mM L-glutamine, 100 U/ml penicillin, and 100 μg/ml streptomycin. After reaching 80% of confluence, cells were detached and seeded on 6-well plates in complete media, allowed to recover for 48 h. Cells were then washed three times with PBS and treated with vehicle (1% DMSO) or 1 µM compound 10 in DMEM with reduced FBS (1%) for 24 hours. Then, culture media with cells were recovered in microtubes and centrifuged at 500 g for 5 minutes. Supernatants (SN) which contain secreted proteins were extracted and protease and phosphatase inhibitors (Roche) were added to each sample. SN were centrifuged at 2,000 g for 10 min to discard any cellular debris and 900 μL SN were transferred to empty microtubes with […] methanol by mixing well. 200 μL of chloroform was added to the mix and then samples were centrifuged at 14,000 g for 2 minutes. […] Quantification of protein bands was done by densitometry using ImageJ software.
Percent of secreted Wnt-3A by L-Wnt3A cells treated with vehicle or compound 10 from two independent experiments is shown in FIG. 5. Percentage was calculated as the percent relative to […] secretion levels from L-Wnt-3A cells treated with vehicle which correspond to 100%.

O=C(COc1ccc(Cl)c(F)c1)N[C@H]1CC[C@H](CNC(=O)c2ccc3cc(Cl)ccc3n2)CC1 [Compound 10, trans-6-chloro-N-((4-(2-(4-chloro-3-fluorophenoxy)acetamido)cyclohexyl)methyl)quinoline-2-carboxamide]
Secretion of Ig kappa light chain (ARH cells): increased the secretion of the immunoglobulin light chain kappa | Secretion of proteins in CHO cells (CHO cells): increased secretion of proteins | Secretion of Wnt-3A (L-Wnt-3A cells): increased the secretion of a particular protein (Wnt-3A)
